The record followed here is article PMC10384657 (Virus Research, 2023).

The structures appear in SMILES notation.

For data set [1], the system named is SARS-CoV-2.
Data set [2] deals with Vero E6 cells. Particulars: 72 h.
For data set [3], the system named is Vero E6/TMPRSS2. Particulars: 72 h.
Data set [4] relates to MPER25c peptide (S2 membrane proximal region derived). Format: binding, SARS-CoV-2.

On to `CC[C@H](C)[C@H](NC(=O)[C@H](CCC(N)=O)NC(=O)[C@H](CC(C)C)NC(=O)[C@H](C)NC(=O)[C@H](C)NC(=O)CNC(=O)[C@H](C)NC(=O)CNC(=O)[C@H](Cc1ccccc1)NC(C)=O)C(=O)N1CCC[C@H]1C(=O)N[C@@H](Cc1ccccc1)C(=O)N[C@@H](C)C(=O)N[C@@H](CCSC)C(=O)N[C@@H](CCC(N)=O)C(=O)N[C@@H](CCSC)C(=O)N[C@@H](C)C(=O)N[C@@H](Cc1ccc(O)cc1)C(=O)N[C@@H](CCCNC(=N)N)C(=O)N[C@@H](Cc1ccccc1)C(N)=O` [PN19], for which, in data set [1], the “fold reduction of the expected IC50 value of PN19 produced by MPER25” value is 48 fold. In data set [2], the “CC50 (mean ± SD)” value was above 100 µM. The “CC50 (mean ± SD)” value in data set [3] is above 100 µM. Moreover, in data set [4], the “binding to immobilized MPER25c (in words)” value is “binds to immobilized MPER25c” and the ka stood at 410.9 M⁻¹ s⁻¹.
